Laboratory results published in patent US20180203025A1, “HDL THERAPY MARKERS” (Cerenis Therapeutics Holding SA, priority 2014, published 2018).

Columns and labels:
[1] = tested on: SR-BI mRNA in mouse macrophages (J774); test: SR-BI gene expression (real-time PCR) in J774 macrophages; assay type: cell-based
Method: J774 were seeded on 6 well plates (300,000 cells/well) and loaded with oxidized-LDL without the use of 3H-cholesterol. […] Gene expression was assayed using the protocols described in Sections 8.3.2 (RNA extraction); 8.3.4 (reverse transcription), and 8.3.5 (qPCR). SR-BI gene expression was determined with Taqman probe Mm00450234.m1 according to the manufacturer's protocol. The reference gene used is HPRT1 (Taqman probe: Mm00446968.m1).
J774 were seeded on 6 well plates (300,000 cells/well) and loaded with oxidized-LDL. […] Gene expression was assayed using the protocols described in Sections 8.3.2 (RNA extraction); 8.3.4 (reverse transcription), and 8.3.5 (qPCR). SR-BI gene (Taqman probe Mm00450234.m1), ABCG1 (Taqman probe Mm00437390.m1), SREBP1 (Taqman probe Mm01138344.m1) and ABCA1 (Taqman probe Mm00442646.m1) expression were determined according to the manufacturer's protocol. […]
J774 were seeded on 6 well plates (600,000 cells/well) in DMEM 10% FCS. […] ABCG1 (Taqman probe Mm00437390.m1), ABCA1 (Taqman probe Mm00442646.m1) and SR-BI (Taqman probe Mm00450234.m1) expression were determined according to the manufacturer's protocol. […]
J774 were seeded on 6 well plates (300,000 cells/well) in DMEM 2.5% FCS. […] ABCA1 (Taqman probe Mm00442646.m1), ABCG1 (Taqman probe Mm00437390.m1), and SR-BI (Taqman probe Mm00450234.m1) expression were determined according to the manufacturer's protocol. […]

[2] = cited from earlier work
[3] = tested on: TAV and PAV of the target coronary artery; test: CHI SQUARE IVUS post-hoc analysis by SAHMRI (second approach); assay type: in vivo, human
Method: A post-hoc analysis of the IVUS data was performed by the South Australian Health & Medical Research Institute (SAHMRI).
In this case there were similar frame-counts between baseline and follow-up. The number of frames selected were normally distributed (FIG. 3).

SR-BI in mouse liver = test: SR-BI protein content in mouse liver; assay type: in vivo; settings: 24 hours after the last injection; increasing concentrations
Method: This study examined the SR-BI and ABCA1 protein content in the liver 24 hours after the last injection of CER-001. A piece of liver (50 mg) was lysed in PBS (500 μL) by brief sonication. The sample was centrifuged (800×g for 10 minutes) and the pellet was discarded. The supernatant was centrifuged for 30 minutes at 16,000×g at 4° C. and the pellet was solubilized with PBS 1% Triton X100 (200 μL). 10 μg of solubilized pellet was loaded on SDS PAGE 10% and ABCA1 expression (ab7360—dilution 1/1000) or SR-BI expression (ab24603—dilution 1/1000) was quantified using imageJ® software.

[4] = baseline PAV equal to or greater than 30, mITT, 3 mg/kg (n = 58)
[5] = baseline PAV equal to or greater than 30, mITT, 6 mg/kg (n = 78)
[6] = baseline PAV equal to or greater than 30, mITT, 12 mg/kg (n = 66)

Compound: OC[C@H]1O[C@@H]2O[C@H]3[C@H](O)[C@@H](O)[C@@H](O[C@H]4[C@H](O)[C@@H](O)[C@@H](O[C@H]5[C@H](O)[C@@H](O)[C@@H](O[C@H]6[C@H](O)[C@@H](O)[C@@H](O[C@H]7[C@H](O)[C@@H](O)[C@@H](O[C@H]8[C@H](O)[C@@H](O)[C@@H](O[C@H]1[C@H](O)[C@H]2O)O[C@@H]8CO)O[C@@H]7CO)O[C@@H]6CO)O[C@@H]5CO)O[C@@H]4CO)O[C@@H]3CO [β-cyclodextrin, reference compound]
- SR-BI mRNA level ([1]; Study O, 0.03 to 30 mM, 6 hours): dose-dependent increase

Compound: CER-001: engineered recombinant human apolipoprotein A-I HDL with sphingomyelin and DPPG; protein-to-phospholipid ratio 1:2.7, 97% Sph and 3% DPPG
- SR-BI mRNA level ([1]; Study J, 24 hours treatment, 250 μg/mL): do not change the mRNA level of SR-BI
- cholesterol mobilization ([2]; healthy volunteers, single IV doses 0.25 to 45 mg/kg): increased cholesterol mobilization with increasing doses
- dose level above which a transient increase of triglycerides was observed ([2]; human, in vivo, iv): greater than 15 mg/kg
- change in TAV and PAV versus placebo ([3]; baseline PAV equal to or greater than 30, mITT, 3 mg/kg): obtained statistical significance versus placebo
- PAV LS mean change (ANCOVA) [3, 4]: −0.963
- TAV LS mean change (ANCOVA) [3, 4]: −6.258
- PAV LS mean change (ANCOVA) [3, 5]: −0.619
- TAV LS mean change (ANCOVA) [3, 5]: −3.429
- PAV LS mean change (ANCOVA) [3, 6]: +0.177
- TAV LS mean change (ANCOVA) [3, 6]: −2.726
- shape of dose-effect curve ([3]; humans, 3, 6, 12 mg/kg): inverted U-shaped dose-effect curve
- reduction in PAV and TAV versus baseline ([3]; mITT population): statistically significant and comparable magnitude of reduction in PAV and TAV versus baseline
- TAV and PAV versus placebo ([3]; mPP population, 3 mg/kg): did achieve nominal statistical significance versus placebo
- liver SR-BI protein level (SR-BI in mouse liver): no significant changes
